Assay results: ChEMBL document CHEMBL1201862, “PubChem BioAssay data set” (2004)
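How tested: cells in 96-well plates exposed to compound for 48 hours at five concentrations. The concentration for 50% growth inhibition is given as GI50.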 Calls of active or inactive are those of the source. No stated cut-off is given here; in the data, active = GI50 up to about 1.1 µM and inactive = higher.

How the values were obtained:
Experiment in all cases: DTP human tumour cell line panel, 48 h
A549 = system: A549
ACHN = system: ACHN
EKVX = system: EKVX
HCT-15 = system: HCT-15
HT-29 = system: HT-29
Hs-578T = system: Hs-578T
KM12 = system: KM12
MCF7 = system: MCF7
MOLT-4 = system: MOLT-4
Malme-3M = system: Malme-3M
NCI-H226 = system: NCI-H226
NCI-H522 = system: NCI-H522
RPMI-8226 = system: RPMI-8226
SF-268 = system: SF-268
SF-295 = system: SF-295
SK-MEL-28 = system: SK-MEL-28
SK-OV-3 = system: SK-OV-3
SNB-19 = system: SNB-19
SNB-75 = system: SNB-75
UACC-257 = system: UACC-257

Row | SMILES | GI50 (A549) | GI50 (ACHN) | GI50 (EKVX) | GI50 (HCT-15) | GI50 (HT-29) | GI50 (Hs-578T) | GI50 (KM12) | GI50 (MCF7) | GI50 (MOLT-4) | GI50 (Malme-3M) | GI50 (NCI-H226) | GI50 (NCI-H522) | GI50 (RPMI-8226) | GI50 (SF-268) | GI50 (SF-295) | GI50 (SK-MEL-28) | GI50 (SK-OV-3) | GI50 (SNB-19) | GI50 (SNB-75) | GI50 (UACC-257)
1 | c1ccc2cc(NCNc3ccc4ccccc4c3)ccc2c1 | 18.3 µM (inactive) | 16.3 µM (inactive) | 14.6 µM (inactive) | 15.6 µM | 19 µM (inactive) | 37.8 µM (inactive) | 13.6 µM (inactive) | 11.8 µM (inactive) | 0.785 µM (active) | 0.927 µM (active) | 17.2 µM (inactive) | 17.6 µM (inactive) | 6.1 µM (inactive) | 38.8 µM (inactive) | 15.2 µM (inactive) | 34.8 µM (inactive) | 33.6 µM (inactive) | 28.1 µM (inactive) | 13.2 µM (inactive) | 8.73 µM (inactive)
2 | CCC(=O)Nc1ccc(N2C(=O)C(Cl)C2c2ccc(SC)cc2)cc1 (stereo not given) | > 100 µM (inactive) | > 100 µM (inactive) | 52.7 µM (inactive) | 98.2 µM | > 100 µM (inactive) | > 100 µM (inactive) | > 100 µM (inactive) | 56.2 µM (inactive) | 67.8 µM (inactive) | > 100 µM (inactive) | 31.5 µM (inactive) | 41 µM (inactive) | 32.5 µM (inactive) | 60.3 µM (inactive) | > 100 µM (inactive) | > 100 µM (inactive) | > 100 µM (inactive) | > 100 µM (inactive) | > 100 µM (inactive) | 44.9 µM (inactive)
3 | CNC(c1ccncc1)C(NC)c1ccncc1 (stereo not given) | > 100 µM (inactive) | > 100 µM (inactive) | > 100 µM (inactive) | > 100 µM | > 100 µM (inactive) | 90.8 µM (inactive) | > 100 µM (inactive) | > 100 µM (inactive) | > 100 µM (inactive) | > 100 µM (inactive) | > 100 µM (inactive) | > 100 µM (inactive) | > 100 µM (inactive) | > 100 µM (inactive) | > 100 µM (inactive) | > 100 µM (inactive) | > 100 µM (inactive) | > 100 µM (inactive) | > 100 µM (inactive) | > 100 µM (inactive)
4 | Cc1ccc(OCC2OC(n3cnc4nc(Cl)nc(Cl)c43)CC2Oc2ccc(C)cc2)cc1 (stereo not given) | 27.3 µM (inactive) | 3.05 µM (inactive) | 11.2 µM (inactive) | 2.36 µM | 5.85 µM (inactive) | 11.9 µM (inactive) | 8.73 µM (inactive) | 5.61 µM (inactive) | 2.01 µM (inactive) | 13.6 µM (inactive) | 12 µM (inactive) | 1.84 µM (inactive) | 2.62 µM (inactive) | 7.01 µM (inactive) | 16.4 µM (inactive) | 3.65 µM (inactive) | 30.3 µM (inactive) | 15.7 µM (inactive) | 14.7 µM (inactive) | 12.9 µM (inactive)
5 | O=C1c2ccccc2NC(=S)[C@@H]2CCCN12 | > 100 µM (inactive) | > 100 µM (inactive) | > 100 µM (inactive) | > 100 µM | > 100 µM (inactive) | > 100 µM (inactive) | > 100 µM (inactive) | > 100 µM (inactive) | > 100 µM (inactive) | > 100 µM (inactive) | > 100 µM (inactive) | > 100 µM (inactive) | > 100 µM (inactive) | > 100 µM (inactive) | > 100 µM (inactive) | > 100 µM (inactive) | > 100 µM (inactive) | > 100 µM (inactive) | > 100 µM (inactive) | > 100 µM (inactive)
6 | C=CCSc1nc2c(N)ncnc2n1C1OC(CO)C(O)C1O (stereo not given) | > 100 µM (inactive) | > 100 µM (inactive) | > 100 µM (inactive) | > 100 µM | > 100 µM (inactive) | > 100 µM (inactive) | 80.2 µM (inactive) | > 100 µM (inactive) | > 100 µM (inactive) | > 100 µM (inactive) | > 100 µM (inactive) | > 100 µM (inactive) | > 100 µM (inactive) | > 100 µM (inactive) | > 100 µM (inactive) | > 100 µM (inactive) | > 100 µM (inactive) | > 100 µM (inactive) | > 100 µM (inactive) | > 100 µM (inactive)
7 | CCC1(c2ccc(N3C(=O)c4cccc5cc([N+](=O)[O-])cc(c45)C3=O)cc2)CCC(=O)NC1=O (stereo not given) | 55.5 µM (inactive) | 11.5 µM (inactive) | 11.7 µM (inactive) | 31 µM | 20.5 µM (inactive) | 16.1 µM (inactive) | > 100 µM (inactive) | 29.9 µM (inactive) | 11.9 µM (inactive) | 20.1 µM (inactive) | 10.9 µM (inactive) | 1.81 µM (inactive) | 11.6 µM (inactive) | 15.1 µM (inactive) | 15.9 µM (inactive) | 22.2 µM (inactive) | 15 µM (inactive) | 35 µM (inactive) | 7.05 µM (inactive) | 47.6 µM (inactive)
8 | N#Cc1ccc(Nc2nc3[nH]cnc3c(=O)[nH]2)cc1 | > 100 µM (inactive) | > 100 µM (inactive) | > 100 µM (inactive) | > 100 µM | > 100 µM (inactive) | > 100 µM (inactive) | > 100 µM (inactive) | > 100 µM (inactive) | > 100 µM (inactive) | > 100 µM (inactive) | > 100 µM (inactive) | > 100 µM (inactive) | > 100 µM (inactive) | > 100 µM (inactive) | > 100 µM (inactive) | > 100 µM (inactive) | > 100 µM (inactive) | > 100 µM (inactive) | > 100 µM (inactive) | > 100 µM (inactive)
9 | O=C1Nc2ccccc2S/C1=C\c1ccc(C(F)(F)F)cc1 | > 100 µM (inactive) | > 100 µM (inactive) | 55.1 µM (inactive) | > 100 µM | > 100 µM (inactive) | > 100 µM (inactive) | > 100 µM (inactive) | > 100 µM (inactive) | > 100 µM (inactive) | > 100 µM (inactive) | > 100 µM (inactive) | > 100 µM (inactive) | > 100 µM (inactive) | > 100 µM (inactive) | > 100 µM (inactive) | > 100 µM (inactive) | > 100 µM (inactive) | > 100 µM (inactive) | 37.1 µM (inactive) | > 100 µM (inactive)
10 | CC(=O)Nc1ccc(S(=O)(=O)c2nnc(NC(C)=O)s2)cc1 | > 100 µM (inactive) | > 100 µM (inactive) | > 100 µM (inactive) | > 100 µM | > 100 µM (inactive) | > 100 µM (inactive) | > 100 µM (inactive) | > 100 µM (inactive) | > 100 µM (inactive) | > 100 µM (inactive) | > 100 µM (inactive) | > 100 µM (inactive) | > 100 µM (inactive) | > 100 µM (inactive) | 25.5 µM (inactive) | > 100 µM (inactive) | > 100 µM (inactive) | > 100 µM (inactive) | > 100 µM (inactive) | > 100 µM (inactive)
11 | [O-][n+]1cn[n+]([O-])c2ccccc21 | 39.6 µM (inactive) | 12.2 µM (inactive) | 33 µM (inactive) | 16.4 µM | 13.6 µM (inactive) | 57.1 µM (inactive) | 19.5 µM (inactive) | 14.3 µM (inactive) | 2.91 µM (inactive) | 18.6 µM (inactive) | > 100 µM (inactive) | 15.1 µM (inactive) | 28.6 µM (inactive) | 33.2 µM (inactive) | 30.3 µM (inactive) | > 100 µM (inactive) | 27.3 µM (inactive) | 84.1 µM (inactive) | 66.5 µM (inactive) | 16.9 µM (inactive)
12 | C#CCNC(=O)NC(CCCCNC(=O)OCc1ccccc1)C(=O)OCc1ccccc1 (stereo not given) | > 77.6 µM (inactive) | 40.1 µM (inactive) | > 100 µM (inactive) | > 100 µM | > 56.2 µM (inactive) | > 100 µM (inactive) | 99.8 µM (inactive) | > 100 µM (inactive) | 31 µM (inactive) | 24.2 µM (inactive) | 41.6 µM (inactive) | 6.64 µM (inactive) | 26.7 µM (inactive) | 67.6 µM (inactive) | > 61 µM (inactive) | 17.7 µM (inactive) | > 100 µM (inactive) | > 100 µM (inactive) | 16.2 µM (inactive) | 19.7 µM (inactive)
13 | Nc1ccc(CCSSCCc2ccc(N)cc2)cc1 | 35.1 µM (inactive) | 29.6 µM (inactive) | 53.5 µM (inactive) | 23.4 µM | 21.8 µM (inactive) | 16.2 µM (inactive) | 30.3 µM (inactive) | 29.7 µM (inactive) | 1.81 µM (inactive) | 12.2 µM (inactive) | 27.5 µM (inactive) | 12.9 µM (inactive) | 25.1 µM (inactive) | 18.4 µM (inactive) | 39 µM (inactive) | 28.3 µM (inactive) | 43.6 µM (inactive) | 50.7 µM (inactive) | 30.9 µM (inactive) | 20 µM (inactive)
14 | c1ccc(Cn2c(-c3ccc(-c4ccccc4)cc3)cc3ccccc32)cc1 | > 100 µM (inactive) | > 100 µM (inactive) | > 100 µM (inactive) | > 100 µM | > 100 µM (inactive) | 24.1 µM (inactive) | > 100 µM (inactive) | > 100 µM (inactive) | > 100 µM (inactive) | 60 µM (inactive) | > 100 µM (inactive) | 28.2 µM (inactive) | > 100 µM (inactive) | > 100 µM (inactive) | > 100 µM (inactive) | > 100 µM (inactive) | > 100 µM (inactive) | > 100 µM (inactive) | 58.1 µM (inactive) | > 100 µM (inactive)
